Results: patent US20240156767A1, “SCREENING METHOD FOR GLP-1 SECRETION REGULATION AGENT, GLP-1 SECRETION REGULATION AGENT, COMPOSITION FOR PREVENTING OR AMELIORATING DIABETES, OBESITY, POSTPRANDIAL HYPERGLYCEMIA, NEURODEGENERATIVE DISEASE, HYPOGLYCEMIA, ADIPOSITY, OR NESIDIOBLASTOSIS, METHOD FOR PROMOTING SECRETION OF GLP-1 IN …” (The Nisshin OilliO Group, Ltd., priority 2021, published 2024)

System: C57BL/6 male mice
Assay: Glucose tolerance test in mice with triacylglycerols: plasma GLP-1 concentration (ELISA)
Format: in vivo
Conditions: 300 μl sample oral per mouse; glucose 2.5 g/kg 60 minutes after sample; blood 30 minutes after glucose; mean±standard error
Experimental: A glucose tolerance test was carried out by the following method to examine effects of administration of triacylglycerol to mice on the plasma GLP-1 secretion during glucose tolerance.
To the PBS solution (10 ml) obtained in the same manner as in the (1-1) above, 50 mg of carboxymethyl cellulose (trade name “Carboxymethyl cellulose sodium”, manufactured by FUJIFILM Wako Pure Chemical Industries, Ltd.) was added and mixed to obtain a carrier solution. To the obtained carrier solution, 2 g of triacylglycerol (trade name “Tridecanoin <Tricaprin>”, manufactured by New Check Prep Co., Ltd.) in which the constituent fatty acids were all capric acid was added and mixed while heating to obtain TriC10 sample.
A carrier solution was obtained in the same manner as in the (1-2) above. […]
Plasma was prepared from the obtained blood by a conventional method, and the plasma GLP-1 concentration (pM) was measured. Note here that the plasma GLP-1 concentration was measured by ELISA using a commercially available kit (trade name “Glucagon Like Peptide-1 (Active) ELISA”, manufactured by Sigma-Aldrich). […]

## CCCCCCCCCC(=O)OCC(COC(=O)CCCCCCCCC)OC(=O)CCCCCCCCC [TriC10, Tridecanoin <Tricaprin>]
  GLP-1 CONCENTRATION (plasma): 2.803 ± 0.952 pM
